Each structure is given as a SMILES string.

The target of this experiment is T1, SIRT1 (Homo sapiens, UniProt Q96EB6).
T1 sequence (Q96EB6 1-747): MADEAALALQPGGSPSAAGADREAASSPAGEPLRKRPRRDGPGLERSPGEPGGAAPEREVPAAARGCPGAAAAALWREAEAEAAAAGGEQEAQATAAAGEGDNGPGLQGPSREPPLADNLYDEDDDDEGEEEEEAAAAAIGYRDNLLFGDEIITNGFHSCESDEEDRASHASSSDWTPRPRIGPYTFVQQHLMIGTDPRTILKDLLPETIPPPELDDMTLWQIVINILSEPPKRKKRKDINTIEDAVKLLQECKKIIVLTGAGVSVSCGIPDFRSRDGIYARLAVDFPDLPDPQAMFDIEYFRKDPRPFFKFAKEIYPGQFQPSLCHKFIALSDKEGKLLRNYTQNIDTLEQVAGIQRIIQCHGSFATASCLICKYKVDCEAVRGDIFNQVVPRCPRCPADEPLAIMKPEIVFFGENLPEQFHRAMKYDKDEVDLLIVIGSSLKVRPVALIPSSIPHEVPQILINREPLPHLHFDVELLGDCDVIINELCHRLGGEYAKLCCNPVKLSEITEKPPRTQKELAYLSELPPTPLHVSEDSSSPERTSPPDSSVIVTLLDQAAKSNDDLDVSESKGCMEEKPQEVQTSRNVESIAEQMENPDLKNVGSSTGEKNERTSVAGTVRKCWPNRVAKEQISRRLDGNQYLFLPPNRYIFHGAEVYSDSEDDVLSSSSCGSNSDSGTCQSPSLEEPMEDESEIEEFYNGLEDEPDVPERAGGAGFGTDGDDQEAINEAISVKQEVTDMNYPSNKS
As to the kind of experiment: Mass spectrometry based assay to identify modulators of SIRT1 activity (deacetylation of p53-based acetylated peptide). It is filed as biochemical. To be noted: 10 nM SIRT1, 0.5 μM peptide substrate, 120 μM βNAD+, 25 minutes at 25° C.; for EC1.5 μM: SIRT1 activation. The source says: A mass spectrometry based assay was used to identify modulators of SIRT1 activity. The mass spectrometry based assay utilizes a peptide having 20 amino acid residues as follows: Ac-EE-K(biotin)-GQSTSSHSK(Ac)NleSTEG-K(5TMR)-EE-NH2 (SEQ ID NO: 1) wherein K(Ac) is an acetylated lysine residue and Nle is a norleucine. The peptide is labeled with the fluorophore 5TMR (excitation 540 nm/emission 580 nm) at the C-terminus. The sequence of the peptide substrate is based on p53 with several modifications. In addition, the methionine residue naturally present in the sequence was replaced with the norleucine because the methionine may be susceptible to oxidation during synthesis and purification.
The mass spectrometry assay is conducted as follows: 0.5 μM peptide substrate and 120 μM βNAD^+ is incubated with 10 nM SIRT1 for 25 minutes at 25° C. in a reaction buffer (50 mM Tris-acetate pH 8, 137 mM NaCl, 2.7 mM KCl, 1 mM MgCl2, 5 mM DTT, 0.05% BSA). Test compounds may be added to the reaction as described above. […] After the 25 minute incubation with SIRT1, 10 μL of 10% formic acid is added to stop the reaction. Reactions are sealed and frozen for later mass spec analysis. Determination of the mass of the substrate peptide allows for precise determination of the degree of acetylation (i.e. starting material) as compared to deacetylated peptide (product).
A control for inhibition of sirtuin activity is conducted by adding 1 μL of 500 mM nicotinamide as a negative control at the start of the reaction (e.g., permits determination of maximum sirtuin inhibition). A control for activation of sirtuin activity is conducted using 10 nM of sirtuin protein, with 1 μL of DMSO in place of compound, to determine the amount of deacetylation of the substrate at a given timepoint within the linear range of the assay. This timepoint is the same as that used for test compounds and, within the linear range, the endpoint represents a change in velocity.
For the above assay, SIRT1 protein was expressed and purified as follows. […] The protein was expressed by induction with 1 mM IPTG as an N-terminal His-tag fusion protein at 18° C. overnight and harvested at 30,000×g. Cells were lysed with lysozyme in lysis buffer (50 mM Tris-HCl, 2 mM Tris[2-carboxyethyl]phosphine (TCEP), 10 μM ZnCl2, 200 mM NaCl) and further treated with sonication for 10 min for complete lysis. The protein was purified over a Ni-NTA column (Amersham) and fractions containing pure protein were pooled, concentrated and run over a sizing column (Sephadex S200 26/60 global). The peak containing soluble protein was collected and run on an Ion-exchange column (MonoQ). Gradient elution (200 mM-500 mM NaCl) yielded pure protein. This protein was concentrated and dialyzed against dialysis buffer (20 mM Tris-HCl, 2 mM TCEP) overnight. The protein was aliquoted and frozen at −80° C. until further use.
Sirtuin modulating compounds that activated SIRT1 were identified using the assay described above and are shown below in Tables 1 and 2. The EC1.5 values for the activating compounds are represented by A (EC1.5<1.0 μM), B (EC1.5 1-25 μM), C (EC1.5>25 μM). The percent maximum fold activation is represented by A (Fold activation>200%) or B (Fold Activation<200%).

Regarding `Cn1c(-c2cccc(C(F)(F)F)c2)nc2c(NC(=O)c3cccc(OCC(O)CO)n3)cccc2c1=O` (stereo not shown) [Compound 335], the “% Fold Act. (percent maximum fold activation)” value is on record as “A (Fold activation>200%)” and the “EC1.5 μM” value is on record as “A (EC1.5<1.0 μM)”.

Consider `Cn1c(-c2ccccc2OC(F)(F)F)nc2c(NC(=O)c3cnccn3)cccc2c1=O` [Compound 274], for which the “% Fold Act. (percent maximum fold activation)” value is listed as “A (Fold activation>200%)” and the “EC1.5 μM” value is listed as “A (EC1.5<1.0 μM)”.

In the case of `O=C(Nc1cccnc1)c1cccc2c(=O)cc(-c3ccccc3OC(F)F)[nH]c12` [Compound 440], the “% Fold Act. (percent maximum fold activation)” value is recorded as “A (Fold activation>200%)” and the “EC1.5 μM” value is recorded as “B (EC1.5 1-25 μM)”.

`CCCn1c(-c2cccc(C(F)(F)F)c2)nc2c(NC(=O)c3cnccn3)cccc2c1=O` [Compound 233]: the “% Fold Act. (percent maximum fold activation)” value is on record as “A (Fold activation>200%)” and the “EC1.5 μM” value is “A (EC1.5<1.0 μM)”.

With `Cn1c(-c2cccc(C(F)(F)F)c2)nc2c(NC(=O)c3cccc(N4CCOCC4)c3)cccc2c1=O` [Compound 330], the “% Fold Act. (percent maximum fold activation)” value is “A (Fold activation>200%)” and the “EC1.5 μM” value was “A (EC1.5<1.0 μM)”.

For the compound `Cn1c(-c2cccc(C(F)(F)F)c2)nc2c(C(=O)Nc3nc(CN4CCNCC4)cs3)cccc2c1=O` [Compound 366], the “% Fold Act. (percent maximum fold activation)” value is given as “A (Fold activation>200%)” and the “EC1.5 μM” value is on record as “A (EC1.5<1.0 μM)”.

Consider `Cn1c(-c2ccccc2)nc2c(C(=O)Nc3ccccn3)cccc2c1=O` [Compound 210], for which the “% Fold Act. (percent maximum fold activation)” value is “B (Fold Activation<200%)” and the “EC1.5 μM” value is listed as “B (EC1.5 1-25 μM)”.

With `Cn1c(-c2cccc(C(F)(F)F)c2)nc2c(NC(=O)c3cncs3)cccc2c1=O` [Compound 229], the “% Fold Act. (percent maximum fold activation)” value is listed as “B (Fold Activation<200%)” and the “EC1.5 μM” value was “B (EC1.5 1-25 μM)”.

`Cn1c(-c2cccc(OC(F)F)c2)nc2c(C(=O)Nc3ccccn3)cccc2c1=O` [Compound 326]: the “% Fold Act. (percent maximum fold activation)” value is on record as “A (Fold activation>200%)” and the “EC1.5 μM” value is on record as “A (EC1.5<1.0 μM)”.

As to `Cn1c(-c2cccc(C(F)(F)F)c2)nc2c(C(=O)Nc3cccc(CN4CCOCC4)c3)cccc2c1=O` [Compound 302], the “% Fold Act. (percent maximum fold activation)” value is given as “A (Fold activation>200%)” and the “EC1.5 μM” value is recorded as “A (EC1.5<1.0 μM)”.

Regarding `Cn1c(-c2cccc(OC(F)(F)F)c2)nc2c(C(=O)Nc3ccccn3)cccc2c1=O` [Compound 207], the “% Fold Act. (percent maximum fold activation)” value was “A (Fold activation>200%)” and the “EC1.5 μM” value is on record as “A (EC1.5<1.0 μM)”.

For `O=C(Nc1cccnc1)c1cccc2c(=O)cc(-c3ccccc3C(F)F)[nH]c12` [Compound 438], the “% Fold Act. (percent maximum fold activation)” value is “A (Fold activation>200%)” and the “EC1.5 μM” value is listed as “B (EC1.5 1-25 μM)”.

For the compound `O=C(Nc1cccnc1)c1cccc2c(=O)cc(-c3ccccc3C(F)(F)F)[nH]c12` [Compound 437], the “% Fold Act. (percent maximum fold activation)” value is reported as “A (Fold activation>200%)” and the “EC1.5 μM” value is “A (EC1.5<1.0 μM)”.

Consider `CCc1nnc(NC(=O)c2cccc3c(=O)cc(-c4cccc(C(F)(F)F)c4)[nH]c23)s1` [Compound 400], for which the “% Fold Act. (percent maximum fold activation)” value is “A (Fold activation>200%)” and the “EC1.5 μM” value is on record as “A (EC1.5<1.0 μM)”.

As to `O=C(Nc1ccccn1)c1cccc2c(=O)[nH]c(-c3ccccc3OC(F)F)nc12` [Compound 328], the “% Fold Act. (percent maximum fold activation)” value was “A (Fold activation>200%)” and the “EC1.5 μM” value was “B (EC1.5 1-25 μM)”.

For the compound `Cn1c(-c2ccccc2C(F)F)nc2c(C(=O)Nc3ccccn3)cccc2c1=O` [Compound 322], the “% Fold Act. (percent maximum fold activation)” value is reported as “A (Fold activation>200%)” and the “EC1.5 μM” value is “B (EC1.5 1-25 μM)”.

`Cn1ccc(-c2nc3c(NC(=O)c4cnccn4)cccc3c(=O)n2C)n1` [Compound 290]: the “% Fold Act. (percent maximum fold activation)” value is “B (Fold Activation<200%)” and the “EC1.5 μM” value is “C (EC1.5>25 μM)”.

The values are drawn from patent publication US9326986B2, “Quinazolinone, quinolone and related analogs as sirtuin modulators” (GLAXOSMITHKLINE LLC, priority 2008, dated 2016).
